For one data set, the system named is cervical cancer. Set-up: method as in Mori et al, 2007. The settings on record: weekly paclitaxel, cervical cancer patients; ref Mori et al, 2007; cited from earlier work.
The conditions of data set [1]: as a single agent; cited from earlier work.
A further data set can be described thus: clinical. The note with it: human, in vivo, iv. The method, then:
(§1) For everolimus, sampling was carried out predose and 1, 2, 4, 6, 12, 24, 48, 96, and 168 h after administration. Everolimus was measured in whole blood by liquid chromatography–mass spectrometry after liquid extraction, its lower limit of quantification being 0.368 ng ml^−1. […] Pharmacokinetic parameters were derived by standard non-compartmental methods of analysis (WinNonlin Pro 5.0). The measured parameters included the maximum plasma concentration (Cmax), time to reach Cmax (tmax), and the truncated area under the time–concentration curve (AUClast).

In data set [2] the test system is advanced solid tumours. The settings on record: prior docetaxel therapy in the same two patients with metastatic breast cancer; patient history; cited from earlier work.
The test system of data set [3] is trastuzumab-resistant breast cancer. Set-up: method as in André et al, 2008. The settings on record: everolimus and paclitaxel with trastuzumab; population pre-treated with trastuzumab and taxanes; preliminary; ref André et al, 2008; cited from earlier work.
Data set [4] has as its system S6K1. Also noted: method as in O'Donnell et al, 2008. The settings on record: ref O'Donnell et al, 2008, cited from earlier work.
The test system of data set [5] is advanced solid tumours. Nature of the data set: Anti-tumour activity, Response Evaluation Criteria in Solid Tumors. It counts as in vivo, human.
Procedure: (§2) Patients receiving at least one dose of study drug medications were evaluated weekly for safety using the National Cancer Institute Common Toxicity Criteria version 2.0. Safety assessments consisted of clinical examinations and scheduled laboratory evaluations and electrocardiograms. […] Treatment with the combination was discontinued on any grade 4 toxicity or failure to return to grade ⩽1 within 2 weeks. […] The concomitant use of any drugs that may interfere with cytochrome CYP450-3A was discouraged. […] Anti-tumour activity was assessed using Response Evaluation Criteria in Solid Tumors.
Data set [6] deals with S6K1. Also noted: method as in Tabernero et al, 2008. The settings on record: weekly dosing (20, 50, or 70 mg), immunohistochemistry; ref Tabernero et al, 2008; cited from earlier work.
For data set [7] the following is noted: as a single agent; no reference given; cited from earlier work.
The nature of data set [8]: Pharmacokinetics of everolimus in whole blood (LC-MS, non-compartmental). The data set is classed as in vivo, human. The note with it: for Tmax / Cmax / half-life: whole blood; for Cmax / half-life: mean (s.d.). Here is the method: as §1
In data set [9] the test system is patients with advanced solid tumours. The note with it: human, in vivo.
Procedure: as §2
(§3) Dose-limiting toxicity was defined as occurring during the first 28-day cycle, suspected of being drug related, and included any grade 4 toxicity, any grade 3 non-haematological toxicity despite preventive therapy, or grade ⩾2 neutropenia, or thrombocytopenia failing to revert to grade ⩽1 within 2 weeks. Three patients were entered per dose level, with expansion to six patients if one of three patients experienced DLT. If DLT occurred in none of three or no more than one of six patients in dose level 1, doses would be escalated to dose level 2. Dose-limiting toxicity in more than one of three or more than two of six patients would be considered unacceptable.
Another data set relates to tumour models. Also noted: method as in O'Reilly et al, 2003. The settings on record: schedule effect, ref O'Reilly et al, 2003; cited from earlier work.
Data set [10] relates to patients with advanced cancers. Also noted: method as in Tabernero et al, 2008. The note with it: single-agent everolimus 70 mg weekly; ref Tabernero et al, 2008; cited from earlier work.
Data set [11] relates to patients with advanced solid tumours. Nature of the data set: Safety and dose-limiting toxicity, NCI Common Toxicity Criteria version 2.0. The settings on record: everolimus + paclitaxel, 16 patients.
Procedure: as §2, §3
Setting [12] is: everolimus + paclitaxel, 16 patients.
The mark [13] stands for this setting: human, po, 15 mg, everolimus 15 mg oral alone, dose level 1, n=3.
Where [14] appears, read: human, po, 30 mg, everolimus 30 mg oral alone, dose level 2, n=4.
Setting [15] is: human, po, everolimus 15 mg oral with paclitaxel 80 mg m^−2, dose level 1, n=3.
[16] abbreviates: human, po, everolimus 30 mg oral with paclitaxel 80 mg m^−2, dose level 2, n=7.

Results on three compounds are retold here after PMC2634724 (British Journal of Cancer, 2009).

SMILES strings stand for the structures. Several values for one entry are separate records, joined by “and”; a condition that tells them apart may be missing. Equal entries are not always repeated. Where two headings read alike, the source gives them in different places. Bounds are passed on as bounds.

In general, Cmax refers to the highest concentration seen after dosing. As usually defined, the half-life is how long it takes for the measured level to halve. A low value points to rapid decline.

On to `CC(=O)O[C@H]1C(=O)[C@@]2(C)[C@H]([C@H](OC(=O)c3ccccc3)[C@]3(O)C[C@H](OC(=O)[C@H](O)[C@@H](NC(=O)c4ccccc4)c4ccccc4)C(C)=C1C3(C)C)[C@]1(OC(C)=O)CO[C@@H]1C[C@@H]2O` [paclitaxel], for which, in the data set on cervical cancer, the “Time apoptosis could be induced after treatment” value is reported as “up to 1 week” and the “Time paclitaxel could be detected in tissue” value is given as “up to 6 days”. Moreover, in data set [1], the Terminal half-life entry is on record as “about 10 h”. For the same compound, the Tmax in the data set “clinical” turned out to be 4.8 min.

As for `CC(=O)O[C@@]12CO[C@@H]1C[C@H](O)[C@@]1(C)C(=O)[C@H](O)C3=C(C)[C@@H](OC(=O)[C@H](O)[C@@H](NC(=O)OC(C)(C)C)c4ccccc4)C[C@@](O)([C@@H](OC(=O)c4ccccc4)[C@H]21)C3(C)C` [docetaxel], in the data set with advanced solid tumours [2], the “Duration of tumour stabilisation previously recorded” value is 3.7 months and 3.5 months.

With `CO[C@H]1C[C@@H]2CC[C@@H](C)[C@@](O)(O2)C(=O)C(=O)N2CCCC[C@H]2C(=O)O[C@H]([C@H](C)C[C@@H]2CC[C@@H](OCCO)[C@H](OC)C2)CC(=O)[C@H](C)/C=C(\C)[C@@H](O)[C@@H](OC)C(=O)[C@H](C)C[C@H](C)/C=C/C=C/C=C/1C` [everolimus, Everolimus], in data set [3], the Rate of response is 46%. The “Duration of sustained inhibition of S6K1 activity in peripheral blood mononuclear cells” value in the data set with S6K1 [4] (single-agent everolimus at doses ⩾20 mg per week) is “at least 7 days”. In the data set with S6K1 [4] (single-agent everolimus), the “Dose with consistent inhibition of S6K1 activity in peripheral blood mononuclear cells” value is not below 20 mg per week. Moreover, the Objective response result in the data set on advanced solid tumours [5] (setting [12]) is given as “No objective response”. In addition, the “Tumour stabilisation reported, patients” value with advanced solid tumours [5] (setting [12]) was 11 patients. The “Sustained tumour stabilisation for more than 4 months, patients” value in the data set on advanced solid tumours [5] (everolimus + paclitaxel, breast (two), ovarian (two), thyroid carcinoma (one), liposarcoma (one)) is reported as “six”. Moreover, in the data set with advanced solid tumours [5] (two patients with metastatic breast cancer at dose level 2 (everolimus 30 mg + paclitaxel)), the “Duration of tumour stabilisation” value is more than 6 months. For the same compound, the “Dose with confirmed inhibition of S6K1 in paired tumour tissue biopsies” value in the data set on S6K1 [6] was not below 20 mg. Further, the Terminal half-life entry in data set [7] is listed as “about 30 h”. Moreover, the Tmax in [8] (everolimus 30 mg oral with paclitaxel 80 mg m^−2, dose level 2, n=7, median (range)) is 1.0 (1–4) h; in data set [8] (human, po, read-out: tmax), 1 h; in [8] (human, everolimus 15 mg oral alone, dose level 1, n=3, median (range), read-out: tmax) it was 1 h; in [8] (human, everolimus 30 mg oral alone, dose level 2, n=4, median (range), read-out: tmax), 1 h. The “Change in tmax, Cmax and AUClast when given in combination” value in data set [8] (everolimus with paclitaxel vs alone) is given as “no meaningful change”. Further, the Cmax in data set [8] (setting [13]) was 75.2 ± 37.4 ng/mL; in data set [8] (setting [14]), 93 ± 28.6 ng/mL; in data set [8] (setting [15]), 57.9 ± 35.8 ng/mL; in [8] (setting [16]), 94.5 ± 60.1 ng/mL. The half-life was 29.5 ± 8.5 h in data set [8] (setting [13]), 26.9 ± 7.1 h in [8] (setting [14]), 24.6 ± 3.6 h in data set [8] (setting [15]) and 27.4 ± 5.6 h in [8] (setting [16]). For the same compound, the “Change of everolimus AUC with concomitant fluconazole” value in [8] (one patient at dose level 2 (everolimus 30 mg), concomitant medication with fluconazole) is on record as “threefold increase”. In data set [9], the “Dose interruptions in any cycle, n (%)” value is given as 8 (50.0). The “Effect of in vivo combination with paclitaxel” value in the data set on tumour models is “additive and synergistic effects”. Besides, the Dose-limiting toxicities observed entry in data set [10] is “grade 3 stomatitis, neutropenia, and hyperglycaemia”. In addition, in [11], the Toxicity-related death result is “No toxicity-related death”.
